Measured values: patent US11873291B2, “Quinoline cGAS antagonist compounds” (ImmuneSensor Therapeutics, Inc., priority 2020, dated 2024)

target: T1, recombinant human cGAS (aa147-522) (Homo sapiens, UniProt Q8N884); assay: In vitro inhibition assay of cGAS activity (ATP consumption, KinaseGlo Max); format: biochemical; conditions: Table 2, read-out: cGAS Inhibition Results IC50
T1 construct: recombinant human cGAS (aa147-522); His6-SUMO (cleaved yes); made in house; host or cells: E. coli BL21/pLys
T1 sequence (Q8N884 147-522): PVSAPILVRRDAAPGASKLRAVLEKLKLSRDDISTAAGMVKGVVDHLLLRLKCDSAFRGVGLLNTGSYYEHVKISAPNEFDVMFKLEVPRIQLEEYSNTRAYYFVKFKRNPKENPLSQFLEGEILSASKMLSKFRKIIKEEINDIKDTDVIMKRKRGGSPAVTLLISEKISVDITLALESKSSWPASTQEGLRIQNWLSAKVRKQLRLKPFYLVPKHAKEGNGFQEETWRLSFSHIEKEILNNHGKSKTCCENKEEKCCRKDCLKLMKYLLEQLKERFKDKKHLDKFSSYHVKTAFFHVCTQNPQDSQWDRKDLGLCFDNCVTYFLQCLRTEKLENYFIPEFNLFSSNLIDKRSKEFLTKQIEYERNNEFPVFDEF
Description: Expression and Purification of Recombinant cGAS Protein: cDNA encoding full-length or amino acids […] of human cGAS was inserted into a modified pET28a vector containing an in-frame His6-SUMO tag. The E. coli strain BL21/pLys harboring the plasmid was induced with 0.5 mM IPTG at 18° C. overnight. His6-SUMO tag was removed by a SUMO protease digestion following purification of the His6-SUMO-cGAS as described previously (Sun et al, 2013, Science 339, 786).
In vitro inhibition assay of cGAS activity: A 60 μL mixture containing 20 mM Tris-Cl, pH 7.5, 5 mM MgCl2, 0.2 mg/mL BSA, 0.01 mg/mL Herring testis DNA, 6.6 μM ATP, 0.1 mM GTP, 1.5 μg/mL of recombinant human cGAS (aa147-522) and serial dilutions of a test compound in DMSO was added to a 96-well plate and incubated at 37° C. for 20 minutes. At the end of reaction, 40 μL of KinaseGlo Max (Promega) was added and chemiluminescence was measured with a luminometer. Inhibitory effect of a compound is evaluated by plotting percentage of ATP consumption against logarithm of compound concentrations. IC50 value was calculated using GraphPad Prism 8 (GraphPad Software, Inc.).
The letter codes for cGAS IC50 include: A (<2 μM); B (2-30 μM); C (>30 μM).

SMILES | IC50 [µM]
O=C(NO)[C@@H]1CCCN(c2cc(-n3ccnc3)c3ccc(Cl)cc3n2)C1 [I-137, (R)-1-(7-chloro-4-(1H-imidazol-1-yl)quinolin-2-yl)-N-hydroxypiperidine-3-carboxamide] | 2 to 30
OCC1CCCN(c2cc(-n3ccnc3)c3ccc(Cl)cc3n2)C1 (centres unmarked) [I-140] | 2 to 30
CC(C)(C)OC(=O)NC[C@@H]1CCCN1c1cc(-n2ccnc2)c2ccc(Cl)c(Cl)c2n1 [I-152] | 2 to 30
NC[C@@H]1CCCN1c1cc(-n2ccnc2)c2ccc(Cl)c(Cl)c2n1 [I-153, (S)-(1-(7,8-dichloro-4-(1H-imidazol-1-yl)quinolin-2-yl)pyrrolidin-2-yl)methanamine] | 2 to 30
Clc1ccc2c(-n3ccnc3)cc(N3CCC(c4nn[nH]n4)C3)nc2c1 (centres unmarked) [I-155] | 2 to 30
O=S(=O)(O)CNc1cc(-n2ccnc2)c2ccc(Cl)c(Cl)c2n1 [I-157] | 2 to 30
CN(CCS(N)(=O)=O)c1ccc2ccc(Cl)c(Cl)c2n1 [I-161] | > 30
O=S(=O)(O)CC(Cc1ccccc1)Nc1cc(-n2ccnc2)c2ccc(Cl)c(Cl)c2n1 (centres unmarked) [I-162, 2-((7,8-dichloro-4-(1H-imidazol-1-yl)quinolin-2-yl)amino)-3-phenylpropane-1-sulfonic acid] | > 30
CC(C)[C@H](CS(=O)(=O)O)Nc1cc(-n2ccnc2)c2ccc(Cl)cc2n1 [I-163] | > 30
O=S(=O)(O)CCN(Cc1ccccc1)c1cc(-n2ccnc2)c2ccc(Cl)c(Cl)c2n1 [I-164, 2-(benzyl(7,8-dichloro-4-(1H-imidazol-1-yl)quinolin-2-yl)amino)ethane-1-sulfonic acid] | 2 to 30
O=C(O)CNc1cc(-n2ccnc2)c2ccc(Cl)cc2n1 [I-166, (7-chloro-4-(1H-imidazol-1-yl)quinolin-2-yl)glycine] | 2 to 30
O=C(O)CNc1cc(Cl)c2ccc(Cl)c(Cl)c2n1 [I-171] | > 30
O=C(O)CN(CCN1CCOCC1)c1cc(-n2ccnc2)c2ccc(Cl)c(Cl)c2n1 [I-172, N-(7,8-dichloro-4-(1H-imidazol-1-yl)quinoline-2-yl)-N-(2-morpholinoethyl)glycine] | 2 to 30
O=C(O)CN(CCCO)c1cc(-n2ccnc2)c2ccc(Cl)c(Cl)c2n1 [I-173] | 2 to 30
O=C(O)CN(Cc1ccncc1)c1cc(-n2ccnc2)c2ccc(Cl)c(Cl)c2n1 [I-176] | 2 to 30
O=C(O)CNc1cc(-c2cn[nH]c2)c2ccc(Cl)c(Cl)c2n1 [I-177, (7,8-dichloro-4-(1H-pyrazol-4-yl)quinolin-2-yl)glycine] | 2 to 30
CN(CC(N)=O)c1cc(-n2ccnc2)c2ccc(Cl)c(Cl)c2n1 [I-179] | 2 to 30
C[C@@H](Nc1cc(-c2cn[nH]c2)c2ccc(Cl)c(Cl)c2n1)C(=O)O [I-180] | 2 to 30
C[C@H](Nc1cc(-c2cn[nH]c2)c2ccc(Cl)c(Cl)c2n1)C(=O)O [I-181] | > 30
O=C(O)CCNc1cc(-n2ccnc2)c2ccc(Cl)cc2n1 [I-182] | 2 to 30
C[C@H](CC(=O)O)Nc1cc(-n2ccnc2)c2ccc(Cl)c(Cl)c2n1 [I-185] | 2 to 30

SMILES | IC50 [µM]
CC(C)[C@@H](CC(=O)O)Nc1cc(-n2ccnc2)c2ccc(Cl)c(Cl)c2n1 [I-187] | 2 to 30
CC(C)[C@H](CC(=O)O)Nc1cc(-n2ccnc2)c2ccc(Cl)c(Cl)c2n1 [I-188] | 2 to 30
O=C(O)C[C@@H](Nc1cc(-n2ccnc2)c2ccc(Cl)c(Cl)c2n1)c1ccccc1 [I-189] | 2 to 30
CN(CCC(N)=O)c1cc(-c2cn[nH]c2)c2ccc(Cl)c(Cl)c2n1 [I-191] | < 2
CNC(=O)CCN(C)c1cc(-c2cn[nH]c2)c2ccc(Cl)c(Cl)c2n1 [I-192] | < 2
CN(CCC(=O)NCc1ccccc1)c1cc(-c2cn[nH]c2)c2ccc(Cl)c(Cl)c2n1 [I-193, N-benzyl-3-((7,8-dichloro-4-(1H-pyrazol-4-yl)quinolin-2-yl)(methyl)amino)propenamide] | 2 to 30
CN(CCC(=O)NCCO)c1cc(-c2cn[nH]c2)c2ccc(Cl)c(Cl)c2n1 [I-194] | < 2
CN(CCC(=O)NCC(N)=O)c1cc(-c2cn[nH]c2)c2ccc(Cl)c(Cl)c2n1 [I-195] | < 2
CN(CCC(=O)NCC(=O)O)c1cc(-c2cn[nH]c2)c2ccc(Cl)c(Cl)c2n1 [I-196] | < 2
CN(C)C(=O)CCN(C)c1cc(-c2cn[nH]c2)c2ccc(Cl)c(Cl)c2n1 [I-197] | < 2
CN(CCC(=O)N1CCCC(O)C1)c1cc(-c2cn[nH]c2)c2ccc(Cl)c(Cl)c2n1 (centres unmarked) [I-198] | < 2
CN(CCC(=O)N1CCCC(CO)C1)c1cc(-c2cn[nH]c2)c2ccc(Cl)c(Cl)c2n1 (centres unmarked) [I-199] | 2 to 30
CNS(=O)(=O)CCNc1cc(-n2ccnc2)c2ccc(Cl)c(Cl)c2n1 [I-201] | < 2
CN(C)S(=O)(=O)CCNc1cc(-n2ccnc2)c2ccc(Cl)c(Cl)c2n1 [I-202] | < 2
NS(=O)(=O)CCNc1cc(-c2cn[nH]c2)c2ccc(Cl)c(Cl)c2n1 [I-203] | < 2
CN(CCS(N)(=O)=O)c1cc(-n2ccnc2)c2ccc(Cl)c(Cl)c2n1 [I-204] | < 2
CNS(=O)(=O)CCN(C)c1cc(-n2ccnc2)c2ccc(Cl)c(Cl)c2n1 [I-205] | < 2
C[C@@H](CS(N)(=O)=O)Nc1cc(-n2ccnc2)c2ccc(Cl)c(Cl)c2n1 [I-206] | 2 to 30
C[C@H](CS(N)(=O)=O)Nc1cc(-n2ccnc2)c2ccc(Cl)c(Cl)c2n1 [I-207] | < 2
NS(=O)(=O)CC(Cc1ccccc1)Nc1cc(-n2ccnc2)c2ccc(Cl)c(Cl)c2n1 (centres unmarked) [I-208, 2-((7,8-dichloro-4-(1H-imidazol-1-yl)quinolin-2-yl)amino)-3-phenylpropane-1-sulfonamide] | 2 to 30
CC(C)[C@H](CS(N)(=O)=O)Nc1cc(-n2ccnc2)c2ccc(Cl)c(Cl)c2n1 [I-209] | > 30

Now from value to compound:

IC50 [µM] | SMILES
< 2 | OC[C@@H]1CCCN1c1cc(-c2cn[nH]c2)c2ccc(Cl)c(Cl)c2n1 [I-138]
< 2 | OC[C@H]1CCCN1c1cc(-n2ccnc2)c2ccc(Cl)c(Cl)c2n1 [I-141]
< 2 | OC[C@@H]1C[C@@H](O)CN1c1cc(-n2ccnc2)c2ccc(Cl)c(Cl)c2n1 [I-142]
< 2 | C[C@@]1(CO)CCCN1c1cc(-n2ccnc2)c2ccc(Cl)c(Cl)c2n1 [I-143]
< 2 | O[C@H]1CCN(c2cc(-n3ccnc3)c3ccc(Cl)c(Cl)c3n2)C1 [I-144]
< 2 | O[C@@H]1CCN(c2cc(-n3ccnc3)c3ccc(Cl)c(Cl)c3n2)C1 [I-145]
< 2 | COC[C@@H]1CCCN1c1cc(-n2ccnc2)c2ccc(Cl)c(Cl)c2n1 [I-147]
< 2 | NS(=O)(=O)CC1CCCN1c1cc(-n2ccnc2)c2ccc(Cl)c(Cl)c2n1 (centres unmarked) [I-148]
< 2 | NS(=O)(=O)C1CCN(c2cc(-n3ccnc3)c3ccc(Cl)c(Cl)c3n2)C1 (centres unmarked) [I-150]
< 2 | CS(=O)(=O)NC[C@@H]1CCCN1c1cc(-n2ccnc2)c2ccc(Cl)c(Cl)c2n1 [I-151]
< 2 | O=C(CO)NC[C@@H]1CCCN1c1cc(-n2ccnc2)c2ccc(Cl)c(Cl)c2n1 [I-154, (S)—N-((1-(7,8-dichloro-4-(1H-imidazol-1-yl)quinolin-2-yl)pyrrolidin-2-yl)methyl)-2-hydroxyacetamide]
< 2 | O=C(O)CNC(=O)C[C@@H]1CCCN1c1cc(-n2ccnc2)c2ccc(Cl)c(Cl)c2n1 [I-156, (S)-(2-(1-(7,8-dichloro-4-(1H-imidazol-1-yl)quinolin-2-yl)pyrrolidin-2-yl)acetyl)glycine]
< 2 | O=S(=O)(O)CCNc1cc(-n2ccnc2)c2ccc(Cl)c(Cl)c2n1 [I-158]
< 2 | CN(CCS(=O)(=O)O)c1cc(-n2ccnc2)c2ccc(Cl)c(Cl)c2n1 [I-159]
< 2 | O=S(=O)(O)CCCNc1cc(-n2ccnc2)c2ccc(Cl)c(Cl)c2n1 [I-160]
< 2 | CC(C)N(CCS(=O)(=O)O)c1cc(-n2ccnc2)c2ccc(Cl)c(Cl)c2n1 [I-165]
< 2 | CN(CC(=O)O)c1cc(-n2ccnc2)c2ccc(Cl)cc2n1 [I-167]
< 2 | O=C(O)[C@H](CO)Nc1cc(-n2ccnc2)c2ccc(Cl)c(Cl)c2n1 [I-168, (7,8-Dichloro-4-(1H-imidazol-1-yl)quinolin-2-yl)serine]
< 2 | O=C(O)C(Cc1ccc(O)cc1)Nc1cc(-n2ccnc2)c2ccc(Cl)c(Cl)c2n1 (centres unmarked) [I-169]
< 2 | CS(=O)(=O)CCC(Nc1cc(-n2ccnc2)c2ccc(Cl)c(Cl)c2n1)C(=O)O (centres unmarked) [I-170, 2-((7,8-Dichloro-4-(1H-imidazol-1-yl)quinolin-2-yl)amino)-4-(methylsulfonyl)butanoic acid]
< 2 | O=C(O)CN(CC(=O)O)c1cc(-n2ccnc2)c2ccc(Cl)c(Cl)c2n1 [I-174]
< 2 | O=C(O)CCN(CC(=O)O)c1cc(-n2ccnc2)c2ccc(Cl)c(Cl)c2n1 [I-175]
< 2 | CN(CCC(=O)O)c1cc(-n2ccnc2)c2ccc(Cl)c(Cl)c2n1 [I-183]
< 2 | CN(CCC(=O)O)c1cc(-c2cn[nH]c2)c2ccc(Cl)c(Cl)c2n1 [I-184]
< 2 | C[C@@H](CC(=O)O)Nc1cc(-n2ccnc2)c2ccc(Cl)c(Cl)c2n1 [I-186]
< 2 | NC(=O)CCNc1cc(-c2cn[nH]c2)c2ccc(Cl)c(Cl)c2n1 [I-190]
